Laboratory results reported in article PMC7156724, “Potent BRD4 inhibitor suppresses cancer cell-macrophage interaction” (Nature Communications, 2020).
Values joined by “and” are separate entries in the source; they are usually repeats but may differ in a detail not shown here. Equal values may be shown once.

Assays:
ES-2 cells = experiment: 3D matrigel assay, ES-2; type: cell-based, human; settings: ES-2, 100 nM
Procedure: Fig. 2 NHWD-870 inhibited BRD4 phosphorylation and c-MYC expression, and suppressed cell growth. a Representative western blot analysis of p-BRD4 (s484/488), BRD4, c-MYC, and GAPDH after treatment of MDA-MB231, SUM159, A2780 ES-2, and H526 cells with JQ-1 or NHWD-870 at the indicated concentrations for 24 h. GAPDH served as the loading control. Selected from three independent experiments. b MTT assays of H526, A2780, ES-2, and MDA-MB231 cells treated with JQ-1 or NHWD-870 at the indicated concentrations for 5 days. Data are presented as mean ± SEM from three independent experiments. c, d Clonogenic assays of H526, A2780, ES-2 and MDA-MB231 cells treated with 250 nM JQ-1 or NHWD-870 for 5 days. Shown are representative images (c) and quantification of colonies (d). […] Shown are representative images (e) and quantification of relative colony sizes (f). Scale bar, 50 μm. Data are presented as mean ± SEM from five independent experiments. p values were calculated using two-tailed, unpaired t tests in this figure. **p < 0.01; ***p < 0.001. Source data are provided as a Source Data file.
Single clone spheroids were generated by culturing A2780, ES-2, H526 and MDA-MB231 cells for 16 h as a hanging drop over a humidified plate in a CO2 incubator in their corresponding complete media. […] The relative spheroid sizes were measured with ImageJ version 1.52s using the 15 representative spheroids.

HIF1α protein = experiment: Western blot of HIF1α in A375 and A2780 cells at 20% or 1% O2; type: cell-based, human; settings: 25 nM, 20% or 1% O2, 24 h
Procedure: Fig. 7 NHWD-870 inhibited CSF1 expression through suppressing BRD4 and HIF1α in tumor cells. a, b Representative western blot analysis of control (Ctrl) and BRD4 knockout (KO) A375 and A2780 cells exposed to 20% or 1% O2 for 24 hours. Selected from three independent experiments. c, d Representative western blot analysis of A375 and A2780 cells treated with DMSO or 25 nM NHWD-870 and exposed to 20% or 1% O2 for 24 h. Selected from three independent experiments. e Relative HIF1 luciferase reporter activity in control (Ctrl), BRD4 knockout (KO), or NHWD-870 treated A375 and A2780 cells exposed to 20% or 1% O2 for 24 h. […] NHWD-870 inhibits the proliferation and survival of TAMs partly by inhibiting BRD4 activity, HIF1α expression, and CSF1 secretion by tumor cells, and downregulating CSF1R mediated ERK and PI3K/AKT signaling in TAMs. p values were calculated using two-tailed, unpaired t tests in this figure. *p < 0.05; **p < 0.01; ***p < 0.001. […]
of treatment, 10 μl AlamarBlue reagent (0.3 mg/ml) was added to each well, and after 18h, the florescence intensity in each well was measured using a top-reading fluorescent plate reader with excitation at 530 nm and emission at 590 nm.
4. […] Supernatants were collected and determined with a Bradford Protein Assay kit (Bio-Rad, Hercules, CA). […]
every week. […] Colony numbers were calculated with imageJ version

Cc1nnn(C)c1-c1cnc2c3c4cnn(C)c4ccc3n([C@H](c3ccccc3)C3CCOCC3)c2c1 [NHWD-870]
Clone Size (relative colony size, 3D matrigel assay) (ES-2 cells): 35.3 and 32.7 and 30.1 and 25.5 and 23.9 | HIF1α protein (western blot) (HIF1α protein): decreased HIF1α protein
